Experimental findings from PubChem BioAssay (NCI) are described below.

Test systems include SR leukemia; M14 melanoma; HOP-62 NSCLC; SF-295 CNS; NCI-H226 lung; MDA-N; NCI-H460 lung; A498 renal; HL-60(TB) leukemia; SF-268 CNS; IGROV1 ovarian; UACC-257 melanoma; NCI-H23 lung; SK-MEL-5 melanoma; HCT-116 colon; BT-549 breast; SNB-19 CNS; HT29 colon; U251 CNS; KM12 colon.
What all share (assay): NCI-60 cell line screen, 48 h

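Grown in 96-well plates, cells were treated for 48 hours with each compound at five concentrations. Insufficient inhibition: endpoint recorded as highest concentration tested. The concentration for full growth arrest is given as TGI.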

For `Cc1nnc2sc(-c3ccc(-c4ccccc4Cl)o3)nn12`, the TGI was 53.6 µM in the assay with SR leukemia; more than 100 µM in the assay on M14 melanoma; more than 100 µM in the assay with HOP-62 NSCLC; more than 100 µM in the assay on SF-295 CNS; 83.5 µM in the assay with NCI-H226 lung; 40.6 µM in the assay on MDA-N. The TGI is more than 100 µM with NCI-H460 lung; more than 100 µM in the assay on A498 renal; 63.3 µM in the assay with HL-60(TB) leukemia; more than 100 µM with SF-268 CNS; more than 100 µM with IGROV1 ovarian; more than 100 µM in the assay on UACC-257 melanoma. In addition, the TGI in the assay with NCI-H23 lung was 74.2 µM; in the assay on SK-MEL-5 melanoma it was 61.3 µM; in the assay on HCT-116 colon, 44.2 µM; in the assay on BT-549 breast it was 60.3 µM; in the assay on SNB-19 CNS it was more than 100 µM; in the assay on HT29 colon, more than 100 µM. The TGI with U251 CNS and in the assay on KM12 colon was more than 100 µM throughout.

As to `NC1=Nc2ccccc2Sc2nnc(-c3ccc(Cl)cc3)n21`, the TGI in the assay with SR leukemia is more than 100 µM; with M14 melanoma, more than 100 µM; with HOP-62 NSCLC, 85 µM; with SF-295 CNS, more than 100 µM; in the assay on NCI-H226 lung, more than 100 µM; in the assay on MDA-N, more than 100 µM. For the same molecule, the TGI was more than 100 µM in the assay on NCI-H460 lung; more than 100 µM in the assay with A498 renal; more than 100 µM in the assay on HL-60(TB) leukemia; 95.3 µM with SF-268 CNS; more than 100 µM in the assay with IGROV1 ovarian; more than 100 µM with UACC-257 melanoma. Moreover, the TGI in the assay on NCI-H23 lung, in the assay with SK-MEL-5 melanoma, with HCT-116 colon, with BT-549 breast, in the assay on SNB-19 CNS and with HT29 colon was more than 100 µM throughout. Also, the figures for the TGI with U251 CNS and with KM12 colon were 80.6 µM and more than 100 µM, respectively.

As to `N=c1oc2ccc(Cl)cc2cc1C(=O)Nc1ccccc1`, the TGI in the assay on SR leukemia was more than 100 µM; in the assay on M14 melanoma, more than 100 µM; in the assay on HOP-62 NSCLC, more than 94.8 µM; in the assay with SF-295 CNS it was more than 100 µM; in the assay with NCI-H226 lung it was more than 100 µM; in the assay on MDA-N, more than 100 µM. Moreover, the TGI in the assay with NCI-H460 lung, in the assay with A498 renal, in the assay on HL-60(TB) leukemia, in the assay on SF-268 CNS, in the assay with IGROV1 ovarian and with UACC-257 melanoma was more than 100 µM in each case. The TGI in the assay with NCI-H23 lung, with SK-MEL-5 melanoma, in the assay with HCT-116 colon, in the assay on BT-549 breast, in the assay with SNB-19 CNS and in the assay on HT29 colon was more than 100 µM in each case. Also, the TGI is more than 93 µM in the assay on U251 CNS and more than 100 µM in the assay on KM12 colon.

With `CN(C)Cc1cc(N=Nc2ccccc2Cl)cc(CN(C)C)c1O`, the TGI in the assay on SR leukemia was more than 100 µM; in the assay with M14 melanoma it was 49.1 µM; in the assay with HOP-62 NSCLC it was more than 100 µM; in the assay on SF-295 CNS, more than 100 µM; with NCI-H226 lung, more than 100 µM; in the assay with MDA-N it was 79.3 µM. Further, the TGI with NCI-H460 lung was more than 100 µM; with A498 renal, more than 100 µM; with HL-60(TB) leukemia, 62.8 µM; in the assay with SF-268 CNS, more than 100 µM; in the assay on IGROV1 ovarian, more than 100 µM; in the assay on UACC-257 melanoma, 41.4 µM. Moreover, the TGI in the assay on NCI-H23 lung is more than 100 µM; with SK-MEL-5 melanoma it was 32 µM; in the assay on HCT-116 colon, more than 100 µM; in the assay with BT-549 breast it was more than 100 µM; in the assay with SNB-19 CNS, more than 100 µM; in the assay on HT29 colon, more than 100 µM. The TGI in the assay on U251 CNS and with KM12 colon was more than 100 µM in each case.

As to `Cc1cc(C)c(C)c(-n2[nH]c(=O)n(C)c2=O)c1C`, the TGI in the assay on SR leukemia, with M14 melanoma, in the assay on HOP-62 NSCLC, in the assay with SF-295 CNS, in the assay on NCI-H226 lung and with MDA-N was more than 100 µM in each case. Also, the TGI with NCI-H460 lung, in the assay with A498 renal, with HL-60(TB) leukemia, with SF-268 CNS, in the assay on IGROV1 ovarian and with UACC-257 melanoma was more than 100 µM each time. Besides, the TGI in the assay on NCI-H23 lung, in the assay on SK-MEL-5 melanoma, in the assay on HCT-116 colon, in the assay on BT-549 breast, with SNB-19 CNS and with HT29 colon was more than 100 µM each time. Also, the TGI with U251 CNS and with KM12 colon was more than 100 µM in each case.

Consider `O=C1CC(CC(OCc2ccccc2)C(COCc2ccccc2)OCc2ccccc2)CC(=O)N1` (stereo not drawn), for which the TGI was more than 100 µM in the assay with SR leukemia; more than 100 µM in the assay with M14 melanoma; more than 100 µM in the assay on HOP-62 NSCLC; more than 100 µM in the assay with SF-295 CNS; more than 100 µM in the assay on NCI-H226 lung; 82.4 µM in the assay with MDA-N. In addition, the TGI in the assay with NCI-H460 lung, in the assay with A498 renal, with HL-60(TB) leukemia, with SF-268 CNS, with IGROV1 ovarian and with UACC-257 melanoma was more than 100 µM in each case. The TGI is more than 100 µM with NCI-H23 lung; 30.9 µM in the assay with SK-MEL-5 melanoma; more than 100 µM in the assay with HCT-116 colon; 49.8 µM in the assay with BT-549 breast; 65.9 µM with HT29 colon; more than 100 µM in the assay on U251 CNS. For the same molecule, the TGI in the assay on KM12 colon was more than 100 µM.

Turning to `CC1CC[C@@]2(OC1)OC1C[C@H]3[C@@H]4CC[C@H]5CC(OC6OC(CO)C(OC7OC(CO)C(O)C(O)C7O)C(O)C6O)CCC5(C)[C@H]4CCC3(C)C1[C@@H]2C` (stereo partly drawn), the TGI came out at 27.5 µM in the assay on SR leukemia; 18.2 µM in the assay on M14 melanoma; 16.1 µM in the assay on HOP-62 NSCLC; 16.4 µM in the assay with SF-295 CNS; 16.5 µM in the assay with NCI-H226 lung; 16.3 µM in the assay with MDA-N. Also, the TGI with NCI-H460 lung turned out to be 21.1 µM; in the assay on A498 renal it was 16.3 µM; with HL-60(TB) leukemia it was 18.5 µM; with SF-268 CNS, 18.1 µM; with IGROV1 ovarian, 9.77 µM; with UACC-257 melanoma, 18.3 µM. Moreover, the TGI in the assay with NCI-H23 lung is 16.2 µM; in the assay on SK-MEL-5 melanoma it was 16.1 µM; with HCT-116 colon, 15 µM; in the assay with BT-549 breast, 11 µM; with SNB-19 CNS it was 17.9 µM; in the assay on HT29 colon it was 15.8 µM. For the same molecule, the values for the TGI in the assay with U251 CNS and with KM12 colon were 17.4 µM and 15.8 µM, respectively.

Regarding `O=Cc1cc2c(o1)C(=O)c1ccccc1C2=O`, the TGI with SR leukemia was found to be 3.68 µM; with M14 melanoma it was 0.367 µM; in the assay with HOP-62 NSCLC, 2.6 µM; with SF-295 CNS, 0.813 µM; in the assay on NCI-H226 lung it was 2.27 µM; in the assay on MDA-N it was 0.352 µM. Further, the TGI came to 2.39 µM in the assay on NCI-H460 lung; 9.44 µM in the assay with A498 renal; 1.15 µM in the assay with HL-60(TB) leukemia; 4.13 µM with SF-268 CNS; 4.46 µM with IGROV1 ovarian; 1.5 µM in the assay on UACC-257 melanoma. The TGI in the assay on NCI-H23 lung was found to be 0.465 µM; with SK-MEL-5 melanoma it was 0.698 µM; in the assay with HCT-116 colon, 1.18 µM; in the assay with BT-549 breast, 2.12 µM; in the assay with SNB-19 CNS, 1.62 µM; in the assay with HT29 colon, 2.12 µM. In addition, the TGI was 2.73 µM in the assay on U251 CNS and 4.54 µM in the assay with KM12 colon.

Take `CCCCCCCC(=O)N/N=C/c1ccc(Sc2nccn2C)c([N+](=O)[O-])c1`: the TGI in the assay on SR leukemia is 55.6 µM; with M14 melanoma, 27.7 µM; in the assay on HOP-62 NSCLC it was 36.4 µM; with SF-295 CNS, 33.9 µM; in the assay on NCI-H226 lung, 32.5 µM; with MDA-N, 32 µM. The TGI with NCI-H460 lung was 30.5 µM; with A498 renal, 32 µM; in the assay on HL-60(TB) leukemia it was 0.772 µM; in the assay with SF-268 CNS, 32 µM; with IGROV1 ovarian, 24.7 µM; with UACC-257 melanoma it was 26.9 µM. Also, the TGI is 42.9 µM with NCI-H23 lung; 26.1 µM in the assay on SK-MEL-5 melanoma; 28.5 µM with HCT-116 colon; 34.2 µM with BT-549 breast; 87 µM in the assay with SNB-19 CNS; 23.4 µM in the assay with HT29 colon. Also, the TGI with U251 CNS was determined as 32.2 µM; in the assay with KM12 colon, 32.1 µM.

On to `CSc1c(C(=O)Nc2ccc(Cl)cc2)c(N)[nH]c(=O)c1C#N`, for which the TGI was more than 100 µM in the assay on SR leukemia; more than 100 µM in the assay on M14 melanoma; 73 µM in the assay with HOP-62 NSCLC; 83.6 µM in the assay with SF-295 CNS; more than 100 µM in the assay with NCI-H226 lung; more than 70 µM in the assay with MDA-N. The TGI with NCI-H460 lung was more than 100 µM; with A498 renal it was 62.1 µM; in the assay with HL-60(TB) leukemia, more than 100 µM; in the assay with SF-268 CNS, more than 100 µM; with IGROV1 ovarian it was more than 100 µM; in the assay on UACC-257 melanoma, more than 93.7 µM. For the same molecule, the TGI in the assay on NCI-H23 lung was 53.3 µM; in the assay on SK-MEL-5 melanoma, 64.3 µM; in the assay with HCT-116 colon it was 44.3 µM; with BT-549 breast, more than 91.1 µM; with SNB-19 CNS it was more than 100 µM; in the assay on HT29 colon, more than 66.4 µM. The TGI is more than 71.4 µM with U251 CNS and more than 100 µM with KM12 colon.

For the molecule `NCCCc1ccc2oc3ccccc3c2c1`, the TGI with SR leukemia turned out to be 52.2 µM; in the assay on M14 melanoma it was 30.1 µM; with HOP-62 NSCLC it was 32 µM; in the assay on SF-295 CNS, 33.2 µM; in the assay with NCI-H226 lung, 35.5 µM; in the assay on MDA-N, 29.6 µM. The TGI was found to be 34.1 µM with NCI-H460 lung; 30.2 µM in the assay on A498 renal; 31.2 µM in the assay on HL-60(TB) leukemia; 39.1 µM with SF-268 CNS; 43.7 µM with IGROV1 ovarian; 32.1 µM with UACC-257 melanoma. Also, the TGI amounted to 41.8 µM in the assay on NCI-H23 lung; 28.5 µM in the assay with SK-MEL-5 melanoma; 29.7 µM with HCT-116 colon; 37.2 µM in the assay with BT-549 breast; 31 µM in the assay with SNB-19 CNS; 26 µM with HT29 colon. This molecule displayed a TGI in the assay on U251 CNS of 33.4 µM.

Turning to `Cc1ccc(-c2n[nH]c(=O)[nH]2)cc1`, the TGI in the assay with SR leukemia, in the assay with M14 melanoma, with HOP-62 NSCLC, with SF-295 CNS, with NCI-H226 lung and with MDA-N was more than 100 µM throughout. Besides, the TGI was more than 100 µM with NCI-H460 lung; more than 100 µM with A498 renal; more than 100 µM with HL-60(TB) leukemia; more than 100 µM in the assay with SF-268 CNS; more than 100 µM with IGROV1 ovarian; 98.7 µM in the assay on UACC-257 melanoma. The TGI with NCI-H23 lung, in the assay on SK-MEL-5 melanoma, with HCT-116 colon, with BT-549 breast, with SNB-19 CNS and in the assay with HT29 colon was more than 100 µM in each case. In addition, the TGI with U251 CNS and with KM12 colon was more than 100 µM in each case.
